For nine compounds, EC50 results are on record in patent publication US12440496B2, “Natriuretic peptide receptor a agonists useful for the treatment of cardiometabolic diseases, kidney disease and diabetes” (Merck Sharp & Dohme LLC, priority 2019, dated 2025).

For this assay, the target named is T1, hNPRA (Homo sapiens, UniProt P16066).
T1 construct: expressed in transfected cells
T1 sequence (P16066 33-1061): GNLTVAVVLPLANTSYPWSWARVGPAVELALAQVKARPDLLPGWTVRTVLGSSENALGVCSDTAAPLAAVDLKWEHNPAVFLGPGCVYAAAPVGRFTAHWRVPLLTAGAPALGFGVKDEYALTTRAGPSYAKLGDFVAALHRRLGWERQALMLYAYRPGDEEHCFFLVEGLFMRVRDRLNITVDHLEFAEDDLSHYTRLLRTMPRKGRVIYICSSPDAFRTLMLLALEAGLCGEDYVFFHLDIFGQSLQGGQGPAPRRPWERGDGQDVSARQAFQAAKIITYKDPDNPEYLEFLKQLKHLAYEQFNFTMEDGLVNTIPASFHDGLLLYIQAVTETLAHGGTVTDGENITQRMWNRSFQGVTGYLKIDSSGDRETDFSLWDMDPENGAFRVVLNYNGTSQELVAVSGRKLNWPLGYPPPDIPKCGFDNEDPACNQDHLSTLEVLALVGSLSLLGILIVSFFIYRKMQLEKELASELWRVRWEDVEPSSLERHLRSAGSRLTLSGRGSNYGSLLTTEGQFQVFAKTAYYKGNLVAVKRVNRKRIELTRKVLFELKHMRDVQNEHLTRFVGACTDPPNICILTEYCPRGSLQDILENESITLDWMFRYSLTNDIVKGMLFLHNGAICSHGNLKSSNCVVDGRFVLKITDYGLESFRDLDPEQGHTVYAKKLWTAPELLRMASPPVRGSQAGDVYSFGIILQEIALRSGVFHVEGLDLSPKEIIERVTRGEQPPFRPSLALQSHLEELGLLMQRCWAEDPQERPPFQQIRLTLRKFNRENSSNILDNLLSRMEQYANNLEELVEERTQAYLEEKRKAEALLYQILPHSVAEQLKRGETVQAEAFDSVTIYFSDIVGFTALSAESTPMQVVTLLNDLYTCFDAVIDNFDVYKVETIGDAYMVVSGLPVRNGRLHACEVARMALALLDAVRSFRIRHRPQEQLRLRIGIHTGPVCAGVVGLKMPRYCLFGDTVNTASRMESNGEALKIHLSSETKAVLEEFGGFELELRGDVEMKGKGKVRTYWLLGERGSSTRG
Kind of assay: NPRA Functional Cell Assay (cGMP HTRF, NPRA HEK JumpIn stable cells). The format is cell-based. To be noted: cGMP production, 1 hour at 37° C., 10-point dose response. Summed up:
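cGMP HTRF read-out after 1 hour compound treatment at 37° C. of human NPRA-expressing HEK JumpIn cells, 1500 cells/well, in buffer with phosphodiesterase inhibitors IBMX and RO20 (100 uM each). Signal converted to [cGMP] by calibration curve; EC50s fitted by 4-parameter logistic; 50 nM h-ANP as positive response.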
For orientation: TR-FRET usually uses a lanthanide donor and a delayed reading to cut background.
In general, EC50 refers to the midpoint of the concentration-response curve. A higher EC50 goes with a need for much substance. In turn, `CN1CC(NC(=O)c2cccc([C@@H](CCNCC(=O)O)NC(=O)c3nc4cc5c(nc4s3)CC[C@H](C(C)(C)C)C5)c2)C1` (racemic) [Example 115, carboxymethyl-[rac-(3R)-3-[3-[(1-methylazetidin-3-yl)carbamoyl]phenyl]-3-[rac-(7S)-7-tert-butyl-5,6,7,8-tetrahydrothiazolo[5,4-b]quinoline-2-carbonyl]amino]propyl]ammonium; 2,2,2-trifluoroacetate] returned an EC50 of 1410 nM. As for `CN(C)[C@H]1CN(CC[C@@H](NC(=O)c2cc3cc4c(nc3s2)CC[C@H](C(C)(C)C)C4)c2ccc(-c3ccc(=O)[nH]c3)cc2)C[C@@H]1O` (racemic) [Example 70, rac-(6S)-6-tert-butyl-N-[rac-(1R)-1-[4-(6-oxo-1H-pyridin-3-yl)phenyl]-3-[rac-(3S,4S)-3-(dimethylamino)-4-hydroxy-pyrrolidin-1-ium-1-yl]propyl]-5,6,7,8-tetrahydrothieno[2,3-b]quinoline-2-carboxamide;formate], the concentration giving a half-maximal response (EC50) came to 1970 nM. The EC50 values of the last two compounds are within 1.5-fold of each other. Compound `CC(C)(C)[C@H]1CCc2nc3sc(C(=O)N[C@H](CCN4CCC(O)CC4)c4ccc(-c5c[nH]nc5C#N)cc4)nc3cc2C1` (racemic) [Example 166, rac-(7S)-7-tert-butyl-N-[rac-(1R)-1-[4-(3-cyano-1H-pyrazol-4-yl)phenyl]-3-(4-hydroxypiperidin-1-ium-1-yl)propyl]-5,6,7,8-tetrahydrothiazolo[5,4-b]quinoline-2-carboxamide; 2,2,2-trifluoroacetate] had an EC50 of 614 nM.

On to `CN(C)CC[C@@H](NC(=O)c1nc2cc3c(nc2s1)CC[C@H](C(C)(C)C)C3)c1cccc(C(=O)N[C@@H]2CNC[C@H]2O)c1` (racemic) [Example 90, rac-(7S)-7-tert-butyl-N-[rac-(1R)-3-(dimethylamino)-1-[3-[[rac-(3R,4R)-4-hydroxypyrrolidin-3-yl]carbamoyl]phenyl]propyl]-5,6,7,8-tetrahydrothiazolo[5,4-b] quinoline-2-carboxamide], for which the EC50 was determined as 271 nM. Turning to `CC(C)(C)[C@H]1CCc2nc3sc(C(=O)N[C@H](CCN4CCC(O)C4)c4ccccc4)cc3cc2C1` (stereo partly drawn) [Example 261, (6S)-6-tert-butyl-N-[(1R)-3-(3-hydroxypyrrolidin-1-yl)-1-phenylpropyl]-5,6,7,8-tetrahydrothieno[2,3-b]quinoline-2-carboxamide], the EC50 is 6320 nM.

Turning to `CN(C)CC[C@@H](NC(=O)c1nc2cc3c(nc2s1)CC[C@H](C(C)(C)C)C3)c1cccc(C(=O)N[C@H]2CCNC2)c1` (racemic) [Example 89, rac-(7S)-7-tert-butyl-N-[rac-(1R)-3-(dimethylamino)-1-[3-[rac-(3S)-pyrrolidin-3-yl]carbamoyl]phenyl] propyl]-5,6,7,8-tetrahydrothiazolo[5,4-b] quinoline-2-carboxamide], the EC50 came out at 230 nM. For the compound `CC(C)(C)[C@@H]1CCc2nc3sc(C(=O)N[C@H](CCN4CCC(c5nn[nH]n5)CC4)c4ccc(-c5cnc(O)c(F)c5)cc4)nc3cc2C1` [Example 271, (R)-N-((R)-3-(4-(2H-tetrazol-5-yl)piperidin-1-yl)-1-(4-(5-fluoro-6-hydroxypyridin-3-yl)phenyl)propyl)-7-(tert-butyl)-5,6,7,8-tetrahydrothiazolo[5,4-b]quinoline-2-carboxamide], the EC50 came out at 1100 nM. In turn, `CC(C)(C)[C@H]1CCc2nc3sc(C(=O)N[C@H](CCN4CCC4)c4cccc(NS(C)(=O)=O)c4)cc3cc2C1` (racemic) [Example 20, ammonium; methylsulfonyl-[3-[rac-(1R)-3-(azetidin-1-yl)-1-[[rac-(6S)-6-tert-butyl-5,6,7,8-tetrahydrothieno[2,3-b]quinoline-2-carbonyl]amino]propyl]phenyl]azanide] yielded an EC50 of 1650 nM. As for `CC(C)(C)[C@H]1CCc2nc3sc(C(=O)N[C@H](CCN4CCOCC4)c4ccc(C(=O)N[C@H]5CNC[C@@H]5O)cc4)cc3cc2C1` (racemic) [Example 72], the EC50 was 987 nM.
